The values below are quoted from earlier work in patent publication US20230159896A1, “MULTI-LINEAGE CARDIOVASCULAR MICROFLUIDIC ORGAN-CHIP” (CEDARS-SINAI MEDICAL CENTER, priority 2020, published 2023).

Entries after “also recorded” stand apart in the source; their conditions may differ.

One may read the Cmax as the maximum level reached in the sampled fluid or tissue.

Data set [1] relates to patient-specific hiPSC-CMs.
The subject of another data set is PI3K/Akt. The settings on record: hiPSC-CMs, previous study.
For data set [2] the following is noted: clinical, at common dose; for Cmax: read-out: Molar Cmax.
For data set [3] the following is noted: for Cardiovascular side effects: patients.
Another data set has as its system zebrafish. The settings on record: zebrafish model.

Regarding insulin: Akt pathway activator, the “Effect of co-treatment on TKI-induced CM toxicity” value in data set [1] (co-treatment with Akt pathway activators) is recorded as “reversed TKI-induced CM toxicity”. For the same compound, the PI3K/Akt phosphorylation result in the data set with PI3K/Akt was “significantly enhanced”.

As to `CNC(=O)c1ccccc1Sc1ccc2c(/C=C/c3ccccn3)n[nH]c2c1` [axitinib], in data set [2], the “Peak plasma concentration (Cmax)” value is 12.6 ng/mL and the Cmax was 900 nM.

On to `CCN(CC)CCNC(=O)c1c(C)[nH]c(/C=C2\C(=O)Nc3ccc(F)cc32)c1C` [sunitinib], for which the Cardiovascular side effects entry in data set [3] was “cause hypertension, ischemia, and cardiac side-effects; also recorded: may cause heart failure or vascular toxicity”. For the same compound, in data set [2], the “Peak plasma concentration (Cmax)” value was 81.9 ng/mL and the Cmax is 1200 nM. Also, the Survival result with zebrafish is “decrease survival”.

As to `CNC(=O)c1cc(Oc2ccc(NC(=O)Nc3ccc(Cl)c(C(F)(F)F)c3)c(F)c2)ccn1` [regorafenib], in data set [2], the “Peak plasma concentration (Cmax)” value was 2500 ng/mL and the Cmax was 8080 nM.

In the case of `COc1cc2nccc(Oc3ccc(NC(=O)NC4CC4)c(Cl)c3)c2cc1C(N)=O` [lenvatinib], in data set [2], the “Peak plasma concentration (Cmax)” value is 660 ng/mL and the Cmax is 1540 nM.

With `COc1cc2ncnc(Nc3ccc(F)c(Cl)c3)c2cc1OCCCN1CCOCC1` [gefitinib], the Cardiovascular side effects entry in data set [3] was “typically does not exhibit cardiotoxic side effects”.

Take `CNC(=O)c1cc(Oc2ccc(NC(=O)Nc3ccc(Cl)c(C(F)(F)F)c3)cc2)ccn1` [sorafenib]: the Cardiovascular side effects result in data set [3] is “cause hypertension, ischemia, and cardiac side-effects; also recorded: may cause heart failure or vascular toxicity”. Moreover, in the data set on zebrafish, the Survival result is listed as “decrease survival”.

With `Cc1ccc(C(=O)Nc2ccc(CN3CCN(C)CC3)c(C(F)(F)F)c2)cc1C#Cc1cnc2cccnn12` [ponatinib], in data set [1] (previous hiPSC-CM study), the “Cytotoxicity on hiPSC-CMs relative to other TKIs” value is on record as “most cytotoxic of all TKIs studied”. In data set [3] (human, in vivo), the “FDA black box warning” value is “arterial occlusions and venous thromboembolisms as well as hepatotoxicity”. Besides, the Cardiovascular side effects entry in data set [3] was “severe vascular toxicity”. Further, in data set [2], the Cmax is 140 nM.

As to `Cc1ccc(Nc2nccc(N(C)c3ccc4c(C)n(C)nc4c3)n2)cc1S(N)(=O)=O` [pazopanib], in data set [3], the Cardiovascular side effects result is recorded as “may cause heart failure or vascular toxicity”. Besides, in data set [2], the “Peak plasma concentration (Cmax)” value was 1960 ng/mL and the Cmax was 3650 nM.

As for `COc1cc2c(Nc3ccc(Br)cc3F)ncnc2cc1OCC1CCN(C)CC1` [vandetanib], the hiPSC-CM contractile function entry in data set [1] (clinically-relevant concentrations, TKIs with FDA black-box warnings) is recorded as “contractile dysfunction”. The “Peak plasma concentration (Cmax)” value in data set [2] is recorded as 960 ng/mL.
